Each structure is given as a SMILES string.

Chain of hMC4R (P32245 whole entry): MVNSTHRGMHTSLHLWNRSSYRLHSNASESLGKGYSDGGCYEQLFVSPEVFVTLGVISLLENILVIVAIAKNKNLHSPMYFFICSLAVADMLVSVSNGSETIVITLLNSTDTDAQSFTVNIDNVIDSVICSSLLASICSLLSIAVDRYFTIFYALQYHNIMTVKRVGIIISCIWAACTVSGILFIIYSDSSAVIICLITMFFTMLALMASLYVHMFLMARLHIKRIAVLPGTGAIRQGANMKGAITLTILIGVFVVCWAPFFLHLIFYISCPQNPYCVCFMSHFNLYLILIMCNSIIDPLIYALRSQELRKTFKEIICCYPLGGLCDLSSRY
Chain of human Melanocortin-4 receptor (MC4R) (P32245 whole entry): as above

The target of the first assay is hMC4R (Homo sapiens (Human), UniProt P32245). The experiment in a line: In vitro binding affinity assay using hMC4R (radioligand competition binding, [125I]-(Nle4, D-Phe7)-α-MSH). The conditions noted are these: geometric mean, read-out: Ki (nM) geometric mean. On the procedure:
Example AA. In Vitro Binding Affinity Assay Using hMC4R
The binding affinity of test compounds at the […] (hMC4R) was assessed using a radioligand competition binding assay. […] Cell membranes were bulked and frozen until the assay was performed.
Compounds were solubilized in 100% dimethyl sulfoxide (DMSO) to a concentration of 30 mM. A 10-point intermediate dilution series using half log dilutions was created in 100% DMSO with a top concentration of 0.03 mM. […] The final compound range in the assay was 300 nM to 0.01 nM with a final DMSO concentration of 1%. […] The exact concentration of radioligand used for each experiment was determined by liquid scintillation counting and adjusted if necessary.
Frozen hMC4R cell membranes were thawed and Dounce homogenized. Homogenates were resuspended in assay buffer to a concentration of 2 μg per well. […] The plates were incubated for 2 hours at room temperature.
The raw data (expressed as counts per minute) were analyzed using ActivityBase (IDBS Data Management Software). […] Equilibrium dissociation constant for inhibitor of ligand and receptor interaction (Ki) values were then calculated from the IC50 values using the Cheng-Prusoff equation: Ki=IC50/(1+([L]/Kd)), where [L] is the concentration of the radioligand used in the experiment and Kd is the affinity of the radioligand (determined in separate saturation experiments).
Background: Displacement assays read how much labelled ligand stays bound in the presence of the test substance.
As usually defined, the Ki is a measure of affinity in units of concentration, obtained from inhibition or displacement. As for `Cc1nc2c(cc1-c1ncccn1)CC[C@@]1(CCN(C(=O)C(C)c3ccc(OC(F)F)nc3)C1)N2` (single isomer, unassigned) [Example 5], the Ki is more than 200 nM.

On to `Cc1ccc2c(n1)NC1(CCN(C(=O)Cc3ccc(F)cc3)C1)CC2C` (single isomer, unassigned) [Example 9, 1-(4,7-dimethyl-3,4-dihydro-1H-spiro[1,8-naphthyridine-2,3′-pyrrolidin]-1′-yl)-2-(4-fluorophenyl)ethan-1-one], for which the Ki came out at 380 nM. As for `Cc1ccc2c(n1)NC1(CCN(C(=O)Cc3ccc(F)cc3)C1)CC2C` (single isomer, unassigned) [Example 10, 1-(4,7-dimethyl-3,4-dihydro-1H-spiro[1,8-naphthyridine-2,3′-pyrrolidin]-1′-yl)-2-(4-fluorophenyl)ethan-1-one], the inhibition constant (Ki) is 440 nM. Take `Cc1ccc2c(n1)NC1(CCN(C(=O)Cc3ccc(F)cc3)C1)CC2C` (single isomer, unassigned) [Example 11, 1-(4,7-dimethyl-3,4-dihydro-1H-spiro[1,8-naphthyridine-2,3′-pyrrolidin]-1′-yl)-2-(4-fluorophenyl)ethan-1-one]: the inhibitory constant (Ki) is more than 2200 nM. On the same count and under the same terms, next, `Cc1ccc2c(n1)NC1(CCN(C(=O)Cc3ccc(F)cc3)C1)CC2C` (single isomer, unassigned) [Example 12, 1-(4,7-dimethyl-3,4-dihydro-1H-spiro[1,8-naphthyridine-2,3′-pyrrolidin]-1′-yl)-2-(4-fluorophenyl)ethan-1-one]: more than 2200 nM.

The target in a further assay is human Melanocortin-4 receptor (MC4R) (Homo sapiens (Human), UniProt P32245). The experiment in a line: Functional in vitro MC4R antagonist potency assay (cAMP HTRF in CHO cells). As to conditions: cAMP HTRF in CHO cells expressing human MC4R, 200 nM aMSH; Kb by Leff-Dougall equation; geometric mean; read-out: Kb (nM) Antagonist geometric. The format is cell-based. How it is done:
Example BB. Functional In Vitro MC4R Antagonist Potency Assay
The functional in vitro antagonist potency for test compounds was determined by monitoring intracellular cyclic adenosine monophosphate (cAMP) levels in Chinese hamster ovary (CHO—) cells stably expressing the human Melanocortin-4 receptor (MC4R). Following agonist activation, human MC4R associates with the G-protein complex causing the Gα subunit to exchange bound GDP for GTP, followed by dissociation of the Ga-GTP complex. The activated Gα subunit can couple to downstream effectors to regulate the levels of second messengers or cAMP within the cell. Thereby, determination of intracellular cAMP levels allows for pharmacological characterization. Intracellular cAMP levels are quantitated using a homogenous assay utilizing the Homogeneous Time-Resolved Fluorescence (HTRF) technology from CisBio. The method is a competitive immunoassay between native cAMP produced by cells and the cAMP labelled with the acceptor dye, d2. The two entities then compete for binding to a monoclonal anti-cAMP antibody labeled with cryptate. The specific signal is inversely proportional to the concentration of cAMP in the cells.
Test compounds were solubilized to 30 mM in 100% dimethyl sulfoxide (DMSO) and stored. […] The final compound concentration range in the assay was 400 nM to […], with a final DMSO concentration of 0.1%.
(95% O2: 5% CO2) overnight, with micro-clime lids (Labcyte, Cat No. LLS-0310). […] Cells were incubated with compound for 30 minutes at 37° C. (95% O2: 5% CO2) before addition of 5 μL EC80, agonist stimulation (200 nM α-melanocyte stimulating hormone, aMSH, Bachem) and another 30-minute incubation at 37° C. (95% O2: 5% CO2). Intracellular cAMP levels were quantified as per Cisbio's protocol (5 uL of D2 and then 5 uL Cryptate, incubated for 1-2 hours at room temperature).
Data expressed as nM cAMP were then normalized to control wells using Activity Base (IDBS). Zero percent effect (ZPE) was defined as nM of cAMP generated from ECK, agonist stimulation (200 nM aMSH). In the absence of an antagonist control compound, one hundred percent effect (HPE) was defined as nM of cAMP generated from assay buffer/vehicle only.
The term Kb denotes the equilibrium dissociation constant of an antagonist, usually derived from a functional assay. Regarding `COc1cc([C@@H](C)C(=O)N2CC[C@@]3(CCc4cc(-c5nccc(C(F)F)n5)c(C)nc4N3)C2)c(F)cn1` [Example 200, (2R)-1-{(2S)-6-[4-(difluoromethyl)pyrimidin-2-yl]-7-methyl-3,4-dihydro-1H-spiro[1,8-naphthyridine-2,3′-pyrrolidin]-1′-yl}-2-(5-fluoro-2-methoxypyridin-4-yl)propan-1-one], the Kb amounted to 0.59 nM.

The assay is the same for the next values; noted with them: human MC4R in CHO cells, cAMP HTRF, 200 nM aMSH challenge; Kb from IC50 by Leff-Dougall equation; geometric mean; read-out: Kb (nM) Antagonist geometric.
Regarding `COc1cc([C@@H](C)C(=O)N2CC[C@@]3(CCc4cc(-c5nc6n(n5)CCC6(F)F)c(C)nc4N3)C2)c(F)cn1` [Example 147, (2R)-1-[(2S)-6-(7,7-difluoro-6,7-dihydro-5H-pyrrolo[12-b][1,2,4]triazol-2-yl)-7-methyl-3,4-dihydro-1H-spiro[1,8-naphthyridine-2,3′-pyrrolidin]-1′-yl]-2-(5-fluoro-2-methoxypyridin-4-yl)propan-1-one], the Kb amounted to 0.57 nM. Still for that read-out and setting: next, `COc1cc([C@@H](C)C(=O)N2CC[C@@]3(CCc4cc(-c5cnsc5)c(C)nc4N3)C2)c(F)cn1` [Example 150, (2R)-2-(5-fluoro-2-methoxypyridin-4-yl)-1-[(2S)-7-methyl-6-(1,2-thiazol-4-yl)-3,4-dihydro-1H-spiro[1,8-naphthyridine-2,3′-pyrrolidin]-1′-yl]propan-1-one]: 9 nM; `COc1cc([C@@H](C)C(=O)N2CC[C@@]3(CCc4cc(-c5cnc(C)nc5)c(C)nc4N3)C2)c(F)cn1` [Example 151, (2R)-2-(5-fluoro-2-methoxypyridin-4-yl)-1-[(2S)-7-methyl-6-(2-methylpyrimidin-5-yl)-3,4-dihydro-1H-spiro[1,8-naphthyridine-2,3′-pyrrolidin]-1′-yl]propan-1-one]: 40 nM; `COc1cc([C@@H](C)C(=O)N2CC[C@@]3(CCc4cc(-c5cnc(C)s5)c(C)nc4N3)C2)c(F)cn1` [Example 153, (2R)-2-(5-fluoro-2-methoxypyridin-4-yl)-1-[(2S)-7-methyl-6-(2-methyl-1,3-thiazol-5-yl)-3,4-dihydro-1H-spiro[1,8-naphthyridine-2,3′-pyrrolidin]-1′-yl]propan-1-one]: 15 nM. Still for that read-out and setting: next, `COc1cc([C@@H](C)C(=O)N2CC[C@@]3(CCc4cc(-c5cnn6cccnc56)c(C)nc4N3)C2)c(F)cn1` [Example 154, (2R)-2-(5-fluoro-2-methoxypyridin-4-yl)-1-[(2S)-7-methyl-6-(pyrazolo[1,5-a]pyrimidin-3-yl)-3,4-dihydro-1H-spiro[1,8-naphthyridine-2,3′-pyrrolidin]-1′-yl]propan-1-one]: 9.5 nM. On the same count and under the same terms, next, `COc1cc([C@@H](C)C(=O)N2CC[C@@]3(CCc4cc(-c5cncc(C)n5)c(C)nc4N3)C2)c(F)cn1` [Example 156, (2R)-2-(5-fluoro-2-methoxypyridin-4-yl)-1-[(2S)-7-methyl-6-(6-methylpyrazin-2-yl)-3,4-dihydro-1H-spiro[1,8-naphthyridine-2,3′-pyrrolidin]-1′-yl]propan-1-one]: 20 nM. With `COc1cc([C@@H](C)C(=O)N2CC[C@@]3(CCc4cc(-c5cnc(C)cn5)c(C)nc4N3)C2)c(F)cn1` [Example 158, (2R)-2-(5-fluoro-2-methoxypyridin-4-yl)-1-[(2S)-7-methyl-6-(5-methylpyrazin-2-yl)-3,4-dihydro-1H-spiro[1,8-naphthyridine-2,3′-pyrrolidin]-1′-yl]propan-1-one], the Kb came out at 23 nM. The same measure, in the same setting: next, `COc1cc([C@@H](C)C(=O)N2CC[C@@]3(CCc4cc(-c5nccnc5C)c(C)nc4N3)C2)c(F)cn1` [Example 164, (2R)-2-(5-fluoro-2-methoxypyridin-4-yl)-1-[(2S)-7-methyl-6-(3-methylpyrazin-2-yl)-3,4-dihydro-1H-spiro[1,8-naphthyridine-2,3′-pyrrolidin]-1′-yl]propan-1-one]: more than 57 nM; `COc1cc([C@@H](C)C(=O)N2CC[C@@]3(CCc4cc(-c5cccc(C(F)F)n5)c(C)nc4N3)C2)c(F)cn1` [Example 181, (2R)-1-{(2S)-6-[6-(difluoromethyl)pyridin-2-yl)-7-methyl-3,4-dihydro-1H-spiro[1,8-naphthyridine-2,3′-pyrrolidin]-1′-yl}-2-(5-fluoro-2-methoxypyridin-4-yl)propan-1-one]: 14 nM.

Turning to `COc1cc([C@@H](C)C(=O)N2CC[C@@]3(CCc4cc(-c5nc(C)n(C(F)F)n5)c(C)nc4N3)C2)c(F)cn1` [Example 188, (2R)-1-{(2S)-6-[1-(difluoromethyl)-5-methyl-1H-1,2,4-triazol-3-yl]-7-methyl-3,4-dihydro-1H-spiro[1,8-naphthyridine-2,3′-pyrrolidin]-1′-yl}-2-(5-fluoro-2-methoxypyridin-4-yl)propan-1-one], the Kb came to 0.086 nM. For the molecule `COc1cc([C@@H](C)C(=O)N2CC[C@@]3(CCc4cc(-c5nc(C(F)F)n(C6CC6)n5)c(C)nc4N3)C2)c(F)cn1` [Example 189, (2R)-1-{(2S)-6-[1-cyclopropyl-5-(difluoromethyl)-1H-1,2,4-triazol-3-yl]-7-methyl-3,4-dihydro-1H-spiro[1,8-naphthyridine-2,3′-pyrrolidin]-1′-yl}-2-(5-fluoro-2-methoxypyridin-4-yl)propan-1-one], the Kb was determined as 4.3 nM.

Consider `COc1cc([C@@H](C)C(=O)N2CC[C@@]3(CCc4cc(-c5cccc(OC(F)F)n5)c(C)nc4N3)C2)c(F)cn1` [Example 198, (2R)-1-{(2S)-6-[6-(difluoromethoxy)pyridin-2-yl]-7-methyl-3,4-dihydro-1H-spiro[1,8-naphthyridine-2,3′-pyrrolidin]-1′-yl}-2-(5-fluoro-2-methoxypyridin-4-yl)propan-1-one], for which the Kb worked out at 8.3 nM. On the same count and under the same terms, next, `COc1cc([C@@H](C)C(=O)N2CC[C@@]3(CCc4cc(-c5ccc(C6CC6)nn5)c(C)nc4N3)C2)c(F)cn1` [Example 199, (2R)-1-[(2S)-6-(6-cyclopropylpyridazin-3-yl)-7-methyl-3,4-dihydro-1H-spiro[1,8-naphthyridine-2,3′-pyrrolidin]-1′-yl]-2-(5-fluoro-2-methoxypyridin-4-yl)propan-1-one]: more than 54 nM.

The values are drawn from patent US12187727B2, “Methods for antagonizing a melanocortin 4 receptor” (Pfizer Inc., priority 2020, dated 2025).
